From patent US20260274876A1, “3-PYRROLIDINE-INDOLE DIMERS AS SEROTONERGIC AGENTS USEFUL FOR THE TREATMENT OF DISORDERS RELATED THERETO” (MINDSET PHARMA INC., priority 2022, published 2026) come the findings set out here.

Some results are limits rather than exact numbers.

Data set [1] is described as follows: Intestinal mucosal permeation using Caco-2 cell monolayers. Conditions: human; for Papp A→B at 2 h, 5 µM / Papp B→A at 2 h, 5 µM / efflux ratio at 2 h, 5 μM: Caco-2, pH 7.4. As to the method:
Plate was returned to incubator.
Vortexed for 5 minutes. […] Incubated at 37° C. for 30 minutes.

Data set [2] in a line: Liver microsomes stability, rat. Conditions: for Remaining Percentage (%) after 60 min, Rat, With cofactors / half-life at 2 μM / microsomal CLint at 2 μM / Remaining Percentage (%) after 60 min, Rat, Without cofactors: rat liver microsomes; for half-life at 2 μM / microsomal CLint at 2 μM: male, rat. As to the method:
(§1) 40 μL of 10 mM NADPH solution was added to each well. The final concentration of NADPH was 1 mM. The negative control samples were prepared by replacing NADPH with 40 μL of ultra-pure H2O. Samples were prepared in duplicate. Negative controls were prepared in singlet.
(§2) This study was performed in duplicate.
(§3) LC/MS analysis was performed for all samples from this study using a Shimadzu liquid chromatograph separation system equipped with degasser DGU-20A5R; solvent delivery unit LC-30AD; system controller SIL-30AC; column oven CTO-30A; CTC Analytics HTC PAL System. Mass spectrometric analysis was performed using a Triple Quad™ 5500 instrument.
(§4) All calculations were carried out using Microsoft Excel.
(§5) All calculations were carried out using Microsoft Excel. Peak areas were determined from extracted ion chromatograms.

Data set [3] can be described thus: Liver microsomes stability, mouse. Conditions: for Remaining Percentage (%) after 60 min, Mouse, With cofactors / half-life at 2 μM / microsomal CLint at 2 μM / Remaining Percentage (%) after 60 min, Mouse, Without cofactors: mouse liver microsomes; for half-life at 2 μM / microsomal CLint at 2 μM: male, mouse. As to the method: as §1, §2, §3, §4, §5
A general note: Liver microsomes are a subcellular fraction often used to study metabolism.

A short description of data set [4]: Plasma stability, human. The data set is classed as in vitro ADME. On the procedure:
(§6) • a. […] The final concentration of organic solvents was 0.5%. The assay was performed in duplicated. • b.
as §4

The nature of data set [5]: Plasma stability, rat. Type of data set: in vitro ADME. As to the method: as §6, §4
Data set [6] in a line: Plasma stability, mouse. The data set is classed as in vitro ADME. As to the method: as §6, §4
Data set [7] in a line: Plasma stability, dog. The data set is classed as in vitro ADME. The settings on record: for half-life: 37° C. On the procedure: as §6, §4
[8] abbreviates: Caco-2, pH 7.4, Percentage recovery (%) A→B, Caco-2, A→B.
Setting [9] is: Caco-2, pH 7.4, Percentage recovery (%) B→A, Caco-2, B→A.

What is called Papp A→B is the apparent permeability from the apical to the basolateral side of a cell layer. Low readings indicate poor permeation, high ones ready permeation. The term Papp B→A denotes the apparent permeability from the basolateral to the apical side of a cell layer. Broadly, the efflux ratio is a quotient of directional permeabilities that is used to spot active efflux. In general, half-life refers to how long it takes for the measured level to halve. Low readings indicate rapid decline, high ones slow decline. What is called microsomal CLint is a measure of how fast metabolising enzymes remove a compound, apart from limits set by blood flow. A lower microsomal CLint goes with slow turnover.

Regarding `CN1CCC[C@@H]1Cc1c[nH]c2cccc(O)c12` [Compound 10, (R)-3-((1-methylpyrrolidin-2-yl)methyl)-1H-indol-4-ol], in data set [1], the apparent permeability from apical to basolateral (Papp A→B) at 2 h, 5 µM came to 23.2 ×10⁻⁶ cm/s; the Papp B→A at 2 h, 5 µM is 18.8 ×10⁻⁶ cm/s; the efflux ratio at 2 h, 5 μM came out at 0.81. In data set [1] (setting [8]), this compound registered a recovery at 2 h, 5 μM of 82.7%. In addition, the recovery at 2 h, 5 μM in data set [1] (setting [9]) came out at 92%.

As for `CN(C)CCc1c[nH]c2cccc(O)c12` [Psilocin, 4-hydroxy-N,N-dimethyltryptamine, reference compound], in data set [2] (rat liver microsomes with NADPH, 2 μM), the “t1/2 Rat” value was determined as 89.01 min. Moreover, the “Remaining Percentage (%) after 60 min, Rat, With cofactors” value in data set [2] is given as 62.68%. The “t1/2 Mouse” value in data set [3] (mouse liver microsomes with NADPH, 2 μM) is 141.71 min. The “Remaining Percentage (%) after 60 min, Mouse, With cofactors” value in data set [3] is 96.89%. In data set [1], the Papp A→B at 2 h, 5 µM came out at 24.6 ×10⁻⁶ cm/s and the Papp B→A at 2 h, 5 µM came to 18.7 ×10⁻⁶ cm/s. Moreover, the recovery at 2 h, 5 μM in data set [1] (setting [8]) was 100%. Besides, the recovery at 2 h, 5 μM in data set [1] (setting [9]) is 102%.

In the case of `[2H]C([2H])(c1c[nH]c2cccc(OC(=O)CCCC(=O)Oc3cccc4[nH]cc(C([2H])([2H])[C@H]5CCCN5C([2H])([2H])[2H])c34)c12)[C@H]1CCCN1C([2H])([2H])[2H]` [Compound I-22, bis(3-(((R)-1-(methyl-d3)pyrrolidin-2-yl)methyl-d2)-1H-indol-4-yl) glutarate], in data set [2], the half-life at 2 μM is below 4.51 min; the microsomal CLint at 2 μM was above 307 µL/min/mg; the “Remaining Percentage (%) after 60 min, Rat, With cofactors” value came out at 0%; the “Remaining Percentage (%) after 60 min, Rat, Without cofactors” value is listed as 0.22%. Also, in data set [3], the half-life at 2 μM is below 4.51 min; the microsomal CLint at 2 μM was above 307 µL/min/mg; the “Remaining Percentage (%) after 60 min, Mouse, With cofactors” value is reported as 0%; the “Remaining Percentage (%) after 60 min, Mouse, Without cofactors” value was determined as 0%. Besides, in data set [4], the “Remaining Percentage (%) 0 min” value was 100.00%, the “Remaining Percentage (%) 30 min” value is listed as 0.00%, the “Remaining Percentage (%) 60 min” value is given as 0.00% and the “Remaining Percentage (%) 120 min” value is 0.00%. Also, in data set [4], the “Remaining Percentage (%) 180 min” value was found to be 0.00% and the “Remaining Percentage (%) 240 min” value was determined as 0.00%. Further, in data set [5], the “Remaining Percentage (%) 0 min” value came to 100.00%, the “Remaining Percentage (%) 30 min” value is 0.00%, the “Remaining Percentage (%) 60 min” value is recorded as 0.00% and the “Remaining Percentage (%) 120 min” value is recorded as 0.00%. For the same compound, in data set [5], the “Remaining Percentage (%) 180 min” value stood at 0.00% and the “Remaining Percentage (%) 240 min” value was 0.00%. Also, in data set [6], the “Remaining Percentage (%) 0 min” value was determined as 100.00%, the “Remaining Percentage (%) 30 min” value is 0.00%, the “Remaining Percentage (%) 60 min” value is 0.00% and the “Remaining Percentage (%) 120 min” value is on record as 0.00%. For the same compound, in data set [6], the “Remaining Percentage (%) 180 min” value came out at 0.00% and the “Remaining Percentage (%) 240 min” value was 0.00%. Further, in data set [7], the “Remaining Percentage (%) 0 min” value was 100.00%, the half-life amounted to 24.9 min, the “Remaining Percentage (%) 30 min” value came to 39.05% and the “Remaining Percentage (%) 60 min” value came out at 14.86%. Moreover, in data set [7], the “Remaining Percentage (%) 120 min” value was 3.51%, the “Remaining Percentage (%) 180 min” value came out at 0.92% and the “Remaining Percentage (%) 240 min” value is listed as 0.56%. Moreover, in data set [1], the Papp A→B at 2 h, 5 µM is below 0.25 ×10⁻⁶ cm/s; the Papp B→A at 2 h, 5 µM is 1.01 ×10⁻⁶ cm/s; the efflux ratio at 2 h, 5 μM is above 4.08. For the same compound, in data set [1] (setting [8]), the recovery at 2 h, 5 μM is below 126%. Moreover, in data set [1] (setting [9]), the recovery at 2 h, 5 μM was 101%.

For `CN1CCC[C@@H]1Cc1c[nH]c2cccc(OC(=O)CCCC(=O)Oc3cccc4[nH]cc(C[C@H]5CCCN5C)c34)c12` [Compound I-13, Bis(3-(((R)-1-methylpyrrolidin-2-yl)methyl)-1H-indol-4-yl) glutarate], in data set [2], the half-life at 2 μM was below 4.51 min; the microsomal CLint at 2 μM is above 307 µL/min/mg; the “Remaining Percentage (%) after 60 min, Rat, With cofactors” value is 0%; the “Remaining Percentage (%) after 60 min, Rat, Without cofactors” value came out at 0%. Further, in data set [3], the half-life at 2 μM was below 4.51 min; the microsomal CLint at 2 μM was above 307 µL/min/mg; the “Remaining Percentage (%) after 60 min, Mouse, With cofactors” value came out at 0%; the “Remaining Percentage (%) after 60 min, Mouse, Without cofactors” value is reported as 0%. In data set [4], the “Remaining Percentage (%) 0 min” value was 100.00%, the “Remaining Percentage (%) 30 min” value is reported as 0.00%, the “Remaining Percentage (%) 60 min” value is listed as 0.00% and the “Remaining Percentage (%) 120 min” value worked out at 0.00%. In addition, in data set [4], the “Remaining Percentage (%) 180 min” value is recorded as 0.00% and the “Remaining Percentage (%) 240 min” value was 0.00%. In data set [5], the “Remaining Percentage (%) 0 min” value was 100.00%, the “Remaining Percentage (%) 30 min” value is listed as 0.00%, the “Remaining Percentage (%) 60 min” value is on record as 0.00% and the “Remaining Percentage (%) 120 min” value came out at 0.00%. Moreover, in data set [5], the “Remaining Percentage (%) 180 min” value amounted to 0.00% and the “Remaining Percentage (%) 240 min” value is given as 0.00%. In data set [6], the “Remaining Percentage (%) 0 min” value is 100.00%, the “Remaining Percentage (%) 30 min” value turned out to be 0.00%, the “Remaining Percentage (%) 60 min” value is 0.00% and the “Remaining Percentage (%) 120 min” value is on record as 0.00%. Further, in data set [6], the “Remaining Percentage (%) 180 min” value is 0.00% and the “Remaining Percentage (%) 240 min” value is on record as 0.00%. Also, in data set [7], the “Remaining Percentage (%) 0 min” value came to 100.00%, the half-life was found to be 49.2 min, the “Remaining Percentage (%) 30 min” value worked out at 67.21% and the “Remaining Percentage (%) 60 min” value came out at 44.90%. In data set [7], the “Remaining Percentage (%) 120 min” value turned out to be 15.17%, the “Remaining Percentage (%) 180 min” value stood at 8.32% and the “Remaining Percentage (%) 240 min” value was 3.48%. Further, in data set [1], the Papp A→B at 2 h, 5 µM is 0.63 ×10⁻⁶ cm/s; the Papp B→A at 2 h, 5 µM stood at 4.1 ×10⁻⁶ cm/s; the efflux ratio at 2 h, 5 μM was 6.5. Besides, the recovery at 2 h, 5 μM in data set [1] (setting [8]) is 94.7%. In data set [1] (setting [9]), this compound came in with a recovery at 2 h, 5 μM of 110%.
